Test results taken from the CheMixHub viscosity set.

Test: xn = mol fraction of the nth substance listed

C=CCC[n+]1ccn(C)c1.[Br-] + O
viscosity [mPa·s], 101.33 kPa
Conditions	x1 = 0.0009034	x1 = 0.00189	x1 = 0.003585	x1 = 0.005487	x1 = 0.007167	x1 = 0.008848
293.15 K	1.018	1.037	1.071	1.102	1.136	1.164
298.15 K	0.904	0.92	0.95	0.977	1.007	1.031
303.15 K	0.809	0.824	0.85	0.874	0.901	0.922
308.15 K	0.73	0.742	0.765	0.788	0.811	0.83
313.15 K	0.662	0.673	0.694	0.714	0.735	0.753

CCCCC(CC)COC(=O)c1ccc(C(=O)OCC(CC)CCCC)c(C(=O)OCC(CC)CCCC)c1 (stereo not drawn) + O
101 kPa
Conditions	viscosity [mPa·s]
303.14 K, x2 = 0.019	151.1
303.15 K, x2 = 0.0111	152.7
303.15 K, x2 = 0.0169	151.2
303.16 K, x2 = 0.00366	153.9
303.16 K, x2 = 0.00372	153.9
303.16 K, x2 = 0.00843	153.1
303.16 K, x2 = 0.0124	152.2
303.16 K, x2 = 0.0155	151.6
303.16 K, x2 = 0.0164	151.4

CCN1CCCC1=O + O
101 kPa
Conditions	viscosity [mPa·s]
298 K, x1 = 0.5	3.855
323 K, x1 = 0.9	1.435

COCCOCCO + O
viscosity [mPa·s]
Conditions	293.15 K	303.15 K	308.15 K	313.15 K	323.15 K
101.3 kPa, x1 = 0.0164	1.374	1.061	–	0.8527	0.6962
101.3 kPa, x1 = 0.0361	1.895	1.421	–	1.108	0.8862
101.3 kPa, x1 = 0.0603	2.602	1.916	–	1.445	1.131
101.3 kPa, x1 = 0.0909	3.571	2.525	–	1.858	1.441
101.3 kPa, x1 = 0.1298	4.594	3.232	–	2.367	1.782
101.3 kPa, x1 = 0.1836	5.705	3.941	–	2.848	2.114
101.3 kPa, x1 = 0.2589	6.431	4.445	–	3.193	2.366
101.3 kPa, x1 = 0.3739	6.442	4.514	–	3.269	2.451
101.3 kPa, x1 = 0.4594	6.083	4.337	–	3.174	2.412
101.3 kPa, x1 = 0.5736	5.544	4.024	–	2.994	2.296
101.3 kPa, x1 = 0.6641	5.108	3.753	–	2.849	2.204
101.3 kPa, x1 = 0.7397	4.791	3.554	–	2.724	2.122
101.3 kPa, x1 = 0.8287	4.441	3.341	–	2.594	2.031
101.3 kPa, x1 = 0.8794	4.286	3.239	–	2.511	1.987
101.3 kPa, x1 = 0.9331	4.149	3.143	–	2.455	1.955
101.33 kPa, x1 = 0.013	–	–	0.914	–	–
101.33 kPa, x1 = 0.0426	–	–	1.445	–	–
101.33 kPa, x1 = 0.058	–	–	1.73	–	–
101.33 kPa, x1 = 0.0793	–	–	2.131	–	–
101.33 kPa, x1 = 0.0999	–	–	2.476	–	–
101.33 kPa, x1 = 0.1286	–	–	2.872	–	–
101.33 kPa, x1 = 0.1865	–	–	3.333	–	–
101.33 kPa, x1 = 0.3088	–	–	3.876	–	–
101.33 kPa, x1 = 0.4518	–	–	3.836	–	–
101.33 kPa, x1 = 0.5434	–	–	3.625	–	–
101.33 kPa, x1 = 0.6518	–	–	3.448	–	–
101.33 kPa, x1 = 0.7694	–	–	3.235	–	–
101.33 kPa, x1 = 0.9087	–	–	2.996	–	–
101.33 kPa, x2 = 0.0109	–	–	2.874	–	–

Nc1ccc(S(=O)(=O)O)cc1 + O
101 kPa
Conditions	viscosity [mPa·s]
298.15 K, x1 = 0.0001913	0.8949
298.15 K, x1 = 0.0003038	0.8969
298.15 K, x1 = 0.0004208	0.899
298.15 K, x1 = 0.0005447	0.8999
298.15 K, x1 = 0.0006999	0.9031
308.15 K, x1 = 0.000111	0.7215
308.15 K, x1 = 0.0001913	0.7221
308.15 K, x1 = 0.0003038	0.724
308.15 K, x1 = 0.0003839	0.7252
308.15 K, x1 = 0.0004208	0.7255
308.15 K, x1 = 0.0006999	0.7281
318.15 K, x1 = 0.0002046	0.5999
318.15 K, x1 = 0.0003685	0.601
318.15 K, x1 = 0.0005157	0.6033
318.15 K, x1 = 0.0006087	0.6041
318.15 K, x1 = 0.0006767	0.6049
318.15 K, x1 = 0.0007735	0.6055

Nc1ccc(S(N)(=O)=O)cc1 + O
viscosity [mPa·s], 101 kPa
Conditions	x1 = 0.0001938	x1 = 0.000331	x1 = 0.0004378	x1 = 0.0004556	x1 = 0.000456	x1 = 0.0005923	x1 = 0.0007136
298.15 K	0.8931	0.895	0.8965	0.897	–	0.899	0.9008
308.15 K	0.7207	0.7224	0.7234	0.724	–	0.7254	–
318.15 K	0.5965	0.5979	0.5992	–	0.5993	0.6007	0.6015

O=C([O-])[C@H](O)[C@@H](O)[C@H](O)[C@H](O)CO.[Na+] + O
viscosity [mPa·s], 100 kPa
Conditions	298.15 K	308.15 K	318.15 K
x1 = 0.0004	0.8985	0.7295	0.6062
x1 = 0.0007	0.9101	0.7386	0.6138
x1 = 0.001	0.9193	0.7501	0.6218
